Target: Jak2 (human Jak2 kinase domain, amino acids 808-1132) (Homo sapiens (Human), UniProt O60674)
Assay: Jak2 inhibition assay (Omnia kinase assay)
Format: biochemical
Conditions: read-out: Jak2 Enzyme (% inhibition at 1000 nM), Table 1; 1000 nM test compound

Chain of Jak2 (human Jak2 kinase domain, amino acids 808-1132) (O60674 808-1132): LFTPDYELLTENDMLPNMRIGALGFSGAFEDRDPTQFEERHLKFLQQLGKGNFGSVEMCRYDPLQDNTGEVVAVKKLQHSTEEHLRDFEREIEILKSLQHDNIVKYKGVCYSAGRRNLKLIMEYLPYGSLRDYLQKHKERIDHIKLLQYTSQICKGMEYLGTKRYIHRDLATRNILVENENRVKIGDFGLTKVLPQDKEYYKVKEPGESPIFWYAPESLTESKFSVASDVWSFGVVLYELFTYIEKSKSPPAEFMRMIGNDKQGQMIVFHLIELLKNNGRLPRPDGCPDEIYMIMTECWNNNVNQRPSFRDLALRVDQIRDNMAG

Compound | inhibition at 1 µM
CNC(=O)c1cnn2ccc(N3CCC[C@@H]3c3cc(F)ccc3F)nc12 [Example 10, (R)-5-(2-(2,5-difluorophenyl)pyrrolidin-1-yl)-N-methylpyrazolo[1,5-a]pyrimidine-3-carboxamide] | 47.5%
O=C(NC1CCC1)c1cnn2ccc(N3CCC[C@@H]3c3cc(F)ccc3F)nc12 [Example 14, (R)—N-cyclobutyl-5-(2-(2,5-difluorophenyl)pyrrolidin-1-yl)pyrazolo[1,5-a]pyrimidine-3-carboxamide] | 66.7%
O=C(c1cnn2ccc(N3CCC[C@@H]3c3cc(F)ccc3F)nc12)N1CC[C@@H](O)C1 [Example 19, (5-((R)-2-(2,5-difluorophenyl)pyrrolidin-1-yl)pyrazolo[1,5-a]pyrimidin-3-yl)((R)-3-hydroxypyrrolidin-1-yl)methanone] | 3.4%
COc1ncc(F)cc1[C@H]1CCCN1c1ccn2ncc(C(=O)NOCCOC(C)(C)C)c2n1 [Example 152, (R)-N-(2-tert-butoxyethoxy)-5-(2-(5-fluoro-2-methoxypyridin-3-yl)pyrrolidin-1-yl)pyrazolo[1,5-a]pyrimidine-3-carboxamide] | 7.6%
CC(C)NC(=O)c1cnn2ccc(N3[C@@H](c4cncc(F)c4)CC[C@@]3(C)CO)nc12 [Example 219, 5-((2 S, 5R)-5-(5-fluoropyridin-3-yl)-2-(hydroxymethyl)-2-methylpyrrolidin-1-yl)-N-isopropylpyrazolo[1,5-a]pyrimidine-3-carboxamide] | 25.5%
NS(=O)(=O)CCNC(=O)c1cnn2ccc(N3CCC[C@@H]3c3cc(F)ccc3F)nc12 [Example 47, (R)-5-(2-(2,5-difluorophenyl)pyrrolidin-1-yl)-N-(2-sulfamoylethyl)pyrazolo[1,5-a]pyrimidine-3-carboxamide] | 37.3%
CC(C)(C)NC(=O)c1cnn2ccc(N3CCC[C@@H]3c3cncc(F)c3)nc12 [Example 53, (R)—N-tert-butyl-5-(2-(5-fluoropyridin-3-yl)pyrrolidin-1-yl)pyrazolo[1,5-a]pyrimidine-3-carboxamide] | 8.7%
CNC(=O)c1cnn2ccc(N3CCC[C@@H]3c3cc(F)cnc3C)nc12 [Example 186, (R)-5-(2-(5-fluoro-2-methylpyridin-3-yl)pyrrolidin-1-yl)-N-methylpyrazolo[1,5-a]pyrimidine-3-carboxamide] | 10.5%
CC1(O)CN(C(=O)c2cnn3ccc(N4CCC[C@@H]4c4cc(F)ccc4F)nc23)C1 [Example 32, (R)-(5-(2-(2,5-difluorophenyl)pyrrolidin-1-yl)pyrazolo[1,5-a]pyrimidin-3-yl)(3-hydroxy-3-methylazetidin-1-yl)methanone] | 8.6%
CS(=O)(=O)N1CCC(NC(=O)c2cnn3ccc(N4CCC[C@@H]4c4cc(F)ccc4F)nc23)CC1 [Example 44, (R)-5-(2-(2,5-difluorophenyl)pyrrolidin-1-yl)-N-(1-(methylsulfonyl)piperidin-4-yl)pyrazolo[1,5-a]pyrimidine-3-carboxamide] | 71.5%
O=C(c1cnn2ccc(N3CCC[C@@H]3c3cncc(F)c3)nc12)N1CC[C@H](O)C1 [Example 128, (5-((R)-2-(5-fluoropyridin-3-yl)pyrrolidin-1-yl)pyrazolo[1,5-a]pyrimidin-3-yl)((S)-3-hydroxypyrrolidin-1-yl)methanone] | 1.2%
O=C(NC1CC1)c1cnn2ccc(N3CCC[C@@H]3c3cc(F)cc(OCCN4CCOCC4)c3)nc12 [Example 85, (R)—N-cyclopropyl-5-(2-(3-fluoro-5-(2-morpholinoethoxy)phenyl)pyrrolidin-1-yl)pyrazolo[1,5-a]pyrimidine-3-carboxamide] | 6%

Second part, the molecule after the results:

inhibition at 1 µM | Compound
0.7% | O=C(NCCN1CCC(O)CC1)c1cnn2ccc(N3CCC[C@@H]3c3cc(F)ccc3F)nc12 [Example 170, 5-((R)-2-(2,5-difluorophenyl)pyrrolidin-1-yl)-N-(2-(4-hydroxypiperidin-1-yl)ethyl)pyrazolo[1,5-a]pyrimidine-3-carboxamide]
15.3% | COCCOc1cc(F)cc([C@H]2CCCN2c2ccn3ncc(C(=O)NC4CC4)c3n2)c1 [Example 77, (R)—N-cyclopropyl-5-(2-(3-fluoro-5-(2-methoxyethoxy)phenyl)pyrrolidin-1-yl)pyrazole [1,5-a]pyrimidine-3-carboxamide]
21.9% | C[C@H](NC(=O)c1cnn2ccc(N3[C@H](CO)CC[C@@H]3c3cncc(F)c3)nc12)C(F)(F)F [Example 213, 5-((2R,5S)-2-(5-fluoropyridin-3-yl)-5-(hydroxymethyl)pyrrolidin-1-yl)-N—((S)-1,1,1-trifluoropropan-2-yl)pyrazolo[1,5-a]pyrimidine-3-carboxamide]
14.2% | Cc1ccc(CNC(=O)c2cnn3ccc(N4CCC[C@@H]4c4cc(F)ccc4F)nc23)o1 [Example 5, (R)-5-(2-(2,5-difluorophenyl)pyrrolidin-1-yl)-N-((5-methylfuran-2-yl)methyl)pyrazolo[1,5-a]pyrimidine-3-carboxamide]
4.9% | CONC(=O)c1cnn2ccc(N3CCC[C@@H]3c3cncc(F)c3)nc12 [Example 73, (R)-5-(2-(5-fluoropyridin-3-yl)pyrrolidin-1-yl)-N-methoxypyrazolo[1,5-a]pyrimidine-3-carboxamide]
38.8% | CCc1ncc(F)cc1[C@H]1CCCN1c1ccn2ncc(C(=O)N[C@H]3CC[C@H](O)CC3)c2n1 [Example 199, 5-((R)-2-(2-ethyl-5-fluoropyridin-3-yl)pyrrolidin-1-yl)-N-((trans)-4-hydroxycyclohexyl)pyrazolo[1,5-a]pyrimidine-3-carboxamide]
5.8% | Cn1cnc(CNC(=O)c2cnn3ccc(N4CCC[C@@H]4c4cc(F)ccc4F)nc23)c1 [Example 21, (R)-5-(2-(2,5-difluorophenyl)pyrrolidin-1-yl)-N-((1-methyl-1H-imidazol-4-yl)methyl) pyrazole[1,5-a]pyrimidine-3-carboxamide]
-0.2% | CC(C)[C@@H](CO)NC(=O)c1cnn2ccc(N3CCC[C@@H]3c3cc(F)ccc3F)nc12 [Example 179, 5-((R)-2-(2,5-difluorophenyl)pyrrolidin-1-yl)-N-((S)-1-hydroxy-3-methylbutan-2-yl)pyrazolo[1,5-a]pyrimidine-3-carboxamide]
23% | CC1(C)CC[C@H](c2cc(F)ccc2F)N1c1ccn2ncc(C(=O)NC3CC3)c2n1 [Example 68, (R)—N-cyclopropyl-5-(5-(2,5-difluorophenyl)-2,2-dimethylpyrrolidin-1-yl)pyrazolo[1,5-a]pyrimidine-3-carboxamide]
6.1% | O=C(N[C@H]1CCC[C@H]1O)c1cnn2ccc(N3CCC[C@@H]3c3cncc(F)c3)nc12 [Example 104, 5-((R)-2-(5-fluoropyridin-3-yl)pyrrolidin-1-yl)-N-((1S,2R)-2-hydroxycyclopentyl)pyrazolo[1,5-a]pyrimidine-3-carboxamide]
6.3% | C[C@H](O)[C@@H](CO)NC(=O)c1cnn2ccc(N3CCC[C@@H]3c3cc(F)ccc3F)nc12 [Example 176, 5-((R)-2-(2,5-difluorophenyl)pyrrolidin-1-yl)-N-((2R,3S)-1,3-dihydroxybutan-2-yl)pyrazolo[1,5-a]pyrimidine-3-carboxamide]

Reference: patent US10251889B2, “Substituted pyrazolo[1,5-a]pyrimidine compounds as Trk kinase inhibitors” (Array BioPharma, Inc., priority 2009, dated 2019)
